Read-outs that look alike come from different tables or passages of the source. *1 amine or outer side, *2 acyl side, *3 side chain or, on linkers, in order; H or OH if unused. Where a SMILES comes first, the peptide text is derived from it. Bridges are numbered along the chain shown (N, C = ends). Primed or numbered codes have the meaning given here. [ ]: non-standard residue; d: D form. The star is where a group is joined. T1 = linker NH2CH2CH2N(SO2Me)CH2COOH, CS(=O)(=O)N(CCN[*:1])CC(=O)[*:2]; T1″ = NH2CH2CH2N(SO2Me)CH2COOH, CS(=O)(=O)N(CCN[*:1])CC(=O)[*:2]; dProlinol(O-CH2CO) = O=C(COC[C@H]1CCCN1[*:1])[*:2]; N(2-Aminoethyl)Gly = O=C(CN(CCN[*:3])[*:1])[*:2]; Nle = CCCC[C@H](N)C(=O)O; Ms = CS(=O)(=O)*; Sar = CNCC(=O)O
Tested on: H929 myeloma cells
Assay type: cell-based, human
Conditions: for fold more potent than linear HYD1: reference of the 10- and 15-fold statements not expressly named; for bioactivity relative to parent/comparator peptide: SAR statements; for activity relative to linear D-HYD1 (words): TOPRO 3
Procedure: H929 cells were treated for 24 hours with varying concentrations of peptide. Cell death was measured by Topro-3 staining and FACS analysis. The IC50 values were obtained from linear regression analysis and an average value was obtained from 3 independent experiments.
Table 4 legend: Structure activity relationship in H929 myeloma cells of cyclic INTEGRIN INTERACTION INHIBITORS derivatives. The minimal bioactive core sequence of INTEGRIN INTERACTION INHIBITORS WSVVM (SEQ ID NO:33) was cyclized using 2 novel reduced amide bond beta turn promoters and KLKLK (SEQ ID NO:34) as the non-recognition sequence. H929 cells were treated with varying concentrations of the indicated peptide for 24 h. Cell viability was determined using Topro-3 staining and FACS analysis after drug treatment. IC50 values were generated from linear regressions generated from the dose response curves (n=mean of 3 independent experiments).
A colony forming assay was used to compare induced cell death in H929 multiple myeloma cells. Cells were treated with integrin interaction inhibitors, shown in FIG. 5 and Table 4, and cell death was measured following 24 hour peptide treatment by TOPRO-3 staining and FACS analysis.

[1] = H929 myeloma cells, 24 h treatment, Topro-3 staining and FACS, mean of at least 3 independent experiments, read-out: IC50
[2] = Table 8, cyclic III peptide analogs, H929 cells, read-out: IC50

With `CSCC[C@@H]1NC(=O)CN(S(C)(=O)=O)CCNC(=O)[C@H](CCCCN)NC(=O)[C@H](CC(C)C)NC(=O)[C@H](CCCCN)NC(=O)[C@H](CC(C)C)NC(=O)[C@H](CCCCN)NC(=O)CN(S(C)(=O)=O)CCNC(=O)[C@H](Cc2c[nH]c3ccccc23)NC(=O)[C@H](CO)NC(=O)[C@H](C(C)C)NC(=O)[C@H](C(C)C)NC1=O` [Peptide 2, KLKLKT1MVVSWT1] the “fold more potent compared to the cyclic D-HYD1 variant” value (H929 cells) was 2 fold and the “fold more potent than linear HYD1” value (H929 cells) was 2.5 fold.

For `CSCC[C@@H]1NC(=O)CN(S(C)(=O)=O)CCNC(=O)[C@H](CCCCN)NC(=O)[C@H](CC(C)C)NC(=O)[C@H](CCCCN)NC(=O)[C@H](CC(C)C)NC(=O)[C@H](CCCCN)NC(=O)CN(S(C)(=O)=O)CCNC(=O)[C@H](C)NC(=O)[C@H](CO)NC(=O)[C@H](C(C)C)NC(=O)[C@H](C(C)C)NC1=O` [Peptide 3, KLKLKT1MVVSAT1], the “bioactivity relative to parent/comparator peptide” value (H929 cells) was “decrease in activity”.

In the case of `CSCC[C@@H]1NC(=O)CN(S(C)(=O)=O)CCNC(=O)[C@H](CCCCN)NC(=O)[C@H](CC(C)C)NC(=O)[C@H](CCCCN)NC(=O)[C@H](CC(C)C)NC(=O)[C@H](CCCCN)NC(=O)CN(S(C)(=O)=O)CCNC(=O)[C@H](Cc2c[nH]c3ccccc23)NC(=O)[C@H](C)NC(=O)[C@H](C(C)C)NC(=O)[C@H](C(C)C)NC1=O` [Peptide 4, KLKLKT1MVVAWT1], the “fold more potent than linear HYD1” value (H929 cells) is reported as “approximately 10 fold”, the “bioactivity relative to parent/comparator peptide” value (H929 cells) is reported as “significantly improved the bioactivity” and the “bioactivity relative to parent/comparator peptide” value (H929 cells, listed as L-cINTEGRIN INTERACTION INHIBITORSa7) is reported as “increase in activity”.

In the case of `CSCC[C@@H]1NC(=O)CN(S(C)(=O)=O)CCNC(=O)[C@H](CCCCN)NC(=O)[C@H](CC(C)C)NC(=O)[C@H](CCCCN)NC(=O)[C@H](CC(C)C)NC(=O)[C@H](CCCCN)NC(=O)CN(S(C)(=O)=O)CCNC(=O)[C@H](Cc2c[nH]c3ccccc23)NC(=O)[C@H](CO)NC(=O)[C@H](C)NC(=O)[C@H](C(C)C)NC1=O` [Peptide 5, KLKLKT1MVASWT1], the “bioactivity relative to parent/comparator peptide” value (H929 cells) is reported as “decrease in activity”.

With `CSCC[C@@H]1NC(=O)CN(S(C)(=O)=O)CCNC(=O)[C@H](CCCCN)NC(=O)[C@H](CC(C)C)NC(=O)[C@H](CCCCN)NC(=O)[C@H](CC(C)C)NC(=O)[C@H](CCCCN)NC(=O)CN(S(C)(=O)=O)CCNC(=O)[C@H](Cc2c[nH]c3ccccc23)NC(=O)[C@H](CO)NC(=O)[C@H](C(C)C)NC(=O)[C@H](C)NC1=O` [Peptide 6, KLKLKT1MAVSWT1] the “bioactivity relative to parent/comparator peptide” value (H929 cells) was “increase in activity”.

In the case of `CC(C)C[C@@H]1NC(=O)[C@H](CCCCN)NC(=O)CN(S(C)(=O)=O)CCNC(=O)[C@H](Cc2c[nH]c3ccccc23)NC(=O)[C@H](CO)NC(=O)[C@H](C(C)C)NC(=O)[C@H](C(C)C)NC(=O)[C@H](C)NC(=O)CN(S(C)(=O)=O)CCNC(=O)[C@H](CCCCN)NC(=O)[C@H](CC(C)C)NC(=O)[C@H](CCCCN)NC1=O` [Peptide 7, KLKLKT1AVVSWT1], the “bioactivity relative to parent/comparator peptide” value (H929 cells) is reported as “decrease in activity”.

In the case of `CCCC[C@@H]1NC(=O)CN(S(C)(=O)=O)CCNC(=O)[C@H](CCCCN)NC(=O)[C@H](CC(C)C)NC(=O)[C@H](CCCCN)NC(=O)[C@H](CC(C)C)NC(=O)[C@H](CCCCN)NC(=O)CN(S(C)(=O)=O)CCNC(=O)[C@H](Cc2c[nH]c3ccccc23)NC(=O)[C@H](CO)NC(=O)[C@H](C(C)C)NC(=O)[C@H](C(C)C)NC1=O` [Peptide 8, KLKLKT1N*VVSWT1], the “fold more potent than linear HYD1” value (H929 cells) is reported as 15 fold and the “bioactivity relative to parent/comparator peptide” value (H929 cells) is reported as “resulted in a further increase of the peptide's bioactivity”.

In the case of `CCCC[C@@H]1NC(=O)CN(S(C)(=O)=O)CCNC(=O)[C@H](CCCCN)NC(=O)[C@H](CC(C)C)NC(=O)[C@H](CCCCN)NC(=O)[C@H](CC(C)C)NC(=O)[C@H](CCCCN)NC(=O)CN(S(C)(=O)=O)CCNC(=O)[C@H](Cc2c[nH]c3ccccc23)NC(=O)[C@H](Cc2ccc(O)cc2)NC(=O)[C@H](C(C)C)NC(=O)[C@H](C(C)C)NC1=O` [Peptide 9, KLKLKT1N*VVYWT1], the “bioactivity relative to parent/comparator peptide” value (H929 cells) is reported as “had a similar bioactivity as the inverso cyclic III peptide 8”.

`CCCC[C@@H]1NC(=O)CN(S(C)(=O)=O)CCNC(=O)[C@H](CCCCN)NC(=O)[C@H](CC(C)C)NC(=O)[C@H](CCCCN)NC(=O)[C@H](CC(C)C)NC(=O)[C@H](CCCCN)NC(=O)COC[C@H]2CCCN2C(=O)[C@H](Cc2c[nH]c3ccccc23)NC(=O)[C@H](C)NC(=O)[C@H](C(C)C)NC(=O)[C@H](C(C)C)NC1=O` [Peptide 16, KLKLKT1N*VVAWT3] (Ms-[N(2-Aminoethyl)Gly][Nle]VVAW[dProlinol(O-CH2CO)]KLKLK; lactam 1-C) showed an IC50 [1] of 13 µM and an IC50 (text b390, H929 multiple myeloma cells, read-out: bioactivity) of 1 µM.

Compound `CCCC[C@@H]1NC(=O)CN(S(C)(=O)=O)CCNC(=O)[C@H](CCCCN)NC(=O)[C@H](CC(C)C)NC(=O)[C@H](CCCCN)NC(=O)[C@H](CC(C)C)NC(=O)[C@H](CCC(N)=O)NC(=O)COC[C@H]2CCCN2C(=O)[C@H](Cc2c[nH]c3ccccc23)NC(=O)[C@H](C)NC(=O)[C@H](C(C)C)NC(=O)[C@H](C(C)C)NC1=O` [Peptide 18, QLKLKT1N*VVAWT3] (Ms-[N(2-Aminoethyl)Gly][Nle]VVAW[dProlinol(O-CH2CO)]QLKLK; lactam 1-C) has an IC50 (24 h) of 19 µM.

Compound `CCCC[C@@H]1NC(=O)[C@H](C(C)C)NC(=O)[C@H](C(C)C)NC(=O)[C@H](C)NC(=O)[C@H](Cc2c[nH]c3ccccc23)NC(=O)COC[C@H]2CCCN2C(=O)[C@H](CCCCN)NC(=O)[C@H](CC(C)C)NC(=O)[C@H](CCCCN)NC(=O)[C@H](CC(C)C)NC(=O)[C@H](CCCCN)NC(=O)COC[C@H]2CCCN2C1=O` [Peptide 22, KLKLKT3WAVVN*T3] (cyclo(KLKLK[dProlinol(O-CH2CO)]WAVV[Nle][dProlinol(O-CH2CO)])) has an IC50 (24 h) of 17 µM.

`CCCC[C@@H]1NC(=O)[C@H](C(C)C)NC(=O)[C@H](C(C)C)NC(=O)[C@H](C)NC(=O)[C@H](Cc2c[nH]c3ccccc23)NC(=O)COC[C@H]2CCCN2C(=O)[C@H](CCCCN)NC(=O)CN(C)C(=O)[C@H](CCCCN)NC(=O)CN(C)C(=O)[C@H](CCCCN)NC(=O)COC[C@H]2CCCN2C1=O` [Peptide 23, KXKXKT3WAVVN*T3] (cyclo(K[Sar]K[Sar]K[dProlinol(O-CH2CO)]WAVV[Nle][dProlinol(O-CH2CO)])) was tested, and the IC50 (24 h) was > 150 µM and the “bioactivity relative to parent/comparator peptide” value (H929 cells) was “poor bioactivity”.

In the case of `CCCC[C@@H]1NC(=O)CN(S(C)(=O)=O)CCNC(=O)[C@H](CCCCN)NC(=O)[C@H](CC(C)C)NC(=O)[C@H](CCCCN)NC(=O)[C@H](CC(C)C)NC(=O)[C@H](CCCCN)NC(=O)COC[C@H]2CCCN2C(=O)[C@H](Cc2c[nH]c3ccccc23)NC(=O)[C@H](C)NC(=O)[C@H](CC(C)C)NC(=O)[C@H](C(C)C)NC1=O` [Peptide 24, KLKLKT1N*VLAWT3] (Ms-[N(2-Aminoethyl)Gly][Nle]VLAW[dProlinol(O-CH2CO)]KLKLK; lactam 1-C), the IC50 [2] is reported as 10 µM.

In the case of `CCCC[C@@H]1NC(=O)CN(S(C)(=O)=O)CCNC(=O)[C@H](CCCCN)NC(=O)[C@H](CC(C)C)NC(=O)[C@H](CCCCN)NC(=O)[C@H](CC(C)C)NC(=O)[C@H](CCCCN)NC(=O)COC[C@H]2CCCN2C(=O)[C@H](Cc2c[nH]c3ccccc23)NC(=O)[C@H](C)NC(=O)[C@H]([C@@H](C)CC)NC(=O)[C@H](C(C)C)NC1=O` [Peptide 25, KLKLKT1N*VIAWT3] (Ms-[N(2-Aminoethyl)Gly][Nle]VIAW[dProlinol(O-CH2CO)]KLKLK; lactam 1-C), the IC50 [2] is reported as 10 µM.

For `CCCC[C@@H]1NC(=O)CN(S(C)(=O)=O)CCNC(=O)[C@H](CCCCN)NC(=O)[C@H](CC(C)C)NC(=O)[C@H](CCCCN)NC(=O)[C@H](CC(C)C)NC(=O)[C@H](CCCCN)NC(=O)COC[C@H]2CCCN2C(=O)[C@H](Cc2c[nH]c3ccccc23)NC(=O)[C@H](C)NC(=O)[C@H](Cc2ccccc2)NC(=O)[C@H](C(C)C)NC1=O` [Peptide 26, KLKLKT1N*VFAWT3] (Ms-[N(2-Aminoethyl)Gly][Nle]VFAW[dProlinol(O-CH2CO)]KLKLK; lactam 1-C), the IC50 [2] was 9 µM.

For `CSCC[C@H]1NC(=O)CN(S(C)(=O)=O)CCNC(=O)[C@@H](CCCCN)NC(=O)[C@@H](CC(C)C)NC(=O)[C@@H](CCCCN)NC(=O)[C@@H](CC(C)C)NC(=O)[C@@H](CCCCN)NC(=O)CN(S(C)(=O)=O)CCNC(=O)[C@@H](Cc2c[nH]c3ccccc23)NC(=O)[C@@H](CO)NC(=O)[C@@H](C(C)C)NC(=O)[C@@H](C(C)C)NC1=O` [cyclic D-HYD1], the IC50 (24 h) was 30 µM, the “activity relative to linear D-HYD1 (words)” value (H929 cells) was “twice as active as linear D-HYD1” and the “activity relative to linear D-HYD1 (words)” value (H929 cells, listed as c-D-HYD1) was “about twice as active as linear D-HYD1”.

For “KLKLKT1AAVVN*T1 (cyclo(KLKLK[T1″]AAVV[Nle][T1″])) [Peptide 15]”, the IC50 [1] was 18 µM, the “bioactivity relative to parent/comparator peptide” value (H929 cells) was “unexpected improvement in bioactivity” and the IC50 [2] was 3 µM.

With “KLKLKT1WAAVN*T1 (cyclo(KLKLK[T1″]WAAV[Nle][T1″])) [Peptide 14]” the IC50 [1] was > 50 µM and the IC50 [2] was 41 µM.

“KLKLKT1WAVAN*T1 (cyclo(KLKLK[T1]WAVAL[T1]); not fully specified (residue 11); printed as KLKLKT1WAVAN*T1) [Peptide 13]” showed an IC50 [1] of 9 µM and an IC50 [2] of 26 µM.

“KLKLKT1WAVVAT1 (cyclo(KLKLK[T1]WAVVA[T1])) [Peptide 12]” was tested, and the IC50 [1] was 10 µM and the IC50 [2] was 69 µM.

“KLKLKT1WAVVN*T1 (cyclo(KLKLK[T1]WAVV[Nle][T1])) [Peptide 11]” was tested, and the IC50 [1] was 10 µM and the IC50 [2] was 12 µM.
